Measurements: ChEMBL document CHEMBL3407357, “Inhibiting the deubiquitinating enzymes (DUBs)” (J Med Chem, 2015)

Legend:
[1] = target: T1, Ubiquitin carboxyl-terminal hydrolase 1 (Homo sapiens, UniProt O94782); experiment: Inhibition of USP1 (unknown origin) by Ub-AMC assay
T1 sequence (O94782 whole entry): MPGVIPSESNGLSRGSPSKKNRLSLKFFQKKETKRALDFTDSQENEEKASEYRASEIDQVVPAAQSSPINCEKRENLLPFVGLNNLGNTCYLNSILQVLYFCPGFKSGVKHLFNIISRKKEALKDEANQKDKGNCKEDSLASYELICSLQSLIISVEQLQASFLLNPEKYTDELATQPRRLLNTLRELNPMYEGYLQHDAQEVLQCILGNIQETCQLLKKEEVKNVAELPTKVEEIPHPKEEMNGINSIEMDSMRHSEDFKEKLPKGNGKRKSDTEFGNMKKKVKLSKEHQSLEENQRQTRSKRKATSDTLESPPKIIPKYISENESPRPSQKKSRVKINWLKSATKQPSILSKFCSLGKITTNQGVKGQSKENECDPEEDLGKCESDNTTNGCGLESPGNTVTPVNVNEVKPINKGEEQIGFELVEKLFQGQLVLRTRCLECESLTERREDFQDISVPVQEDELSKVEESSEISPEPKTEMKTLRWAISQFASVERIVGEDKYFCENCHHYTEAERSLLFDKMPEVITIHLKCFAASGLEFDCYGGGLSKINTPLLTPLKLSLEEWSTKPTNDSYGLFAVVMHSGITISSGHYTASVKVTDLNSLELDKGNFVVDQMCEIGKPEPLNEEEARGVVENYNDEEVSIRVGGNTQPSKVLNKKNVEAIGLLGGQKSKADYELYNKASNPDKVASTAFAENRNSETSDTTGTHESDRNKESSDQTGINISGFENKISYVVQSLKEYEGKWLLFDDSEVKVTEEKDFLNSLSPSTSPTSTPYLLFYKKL

[2] = target: Ubiquitin carboxyl-terminal hydrolase 10 (Homo sapiens, UniProt Q14694); experiment: Inhibition of USP10 (unknown origin) by Ub-AMC assay
[3] = target: T2, Ubiquitin carboxyl-terminal hydrolase 13 (Homo sapiens, UniProt Q92995); experiment: Inhibition of USP13 (unknown origin) by Ub-AMC assay
T2 sequence (Q92995 whole entry): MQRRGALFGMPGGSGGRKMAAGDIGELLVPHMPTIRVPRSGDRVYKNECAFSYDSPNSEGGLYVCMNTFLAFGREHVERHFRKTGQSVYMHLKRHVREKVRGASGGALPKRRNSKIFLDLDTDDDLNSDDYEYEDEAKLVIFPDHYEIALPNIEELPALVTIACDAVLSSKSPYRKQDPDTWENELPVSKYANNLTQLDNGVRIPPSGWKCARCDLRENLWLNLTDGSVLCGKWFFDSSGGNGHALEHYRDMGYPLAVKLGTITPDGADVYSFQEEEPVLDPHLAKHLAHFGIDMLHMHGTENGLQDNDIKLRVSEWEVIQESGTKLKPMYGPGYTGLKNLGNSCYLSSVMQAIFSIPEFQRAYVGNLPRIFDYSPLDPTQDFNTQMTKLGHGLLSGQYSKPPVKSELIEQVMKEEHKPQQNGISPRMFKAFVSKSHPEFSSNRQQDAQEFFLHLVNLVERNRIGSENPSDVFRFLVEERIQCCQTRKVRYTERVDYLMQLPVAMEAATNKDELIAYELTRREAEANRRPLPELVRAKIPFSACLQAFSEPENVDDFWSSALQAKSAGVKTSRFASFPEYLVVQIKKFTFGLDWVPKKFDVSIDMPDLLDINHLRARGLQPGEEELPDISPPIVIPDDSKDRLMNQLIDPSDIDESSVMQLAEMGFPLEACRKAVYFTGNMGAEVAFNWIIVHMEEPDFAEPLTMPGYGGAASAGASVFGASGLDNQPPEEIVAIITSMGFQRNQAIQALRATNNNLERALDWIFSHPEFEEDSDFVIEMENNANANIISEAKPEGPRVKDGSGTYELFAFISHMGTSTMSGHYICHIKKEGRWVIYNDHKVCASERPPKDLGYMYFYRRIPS

[4] = Steady state intracellular drug concentration after 1 hr by LC-MS and UV spectroscopy by cell based assay
[5] = target: T3, Ubiquitin carboxyl-terminal hydrolase 7 (Homo sapiens, UniProt Q93009); experiment: Inhibition of USP7 in multiple myeloma cells (unknown origin) by immunohistochemistry; type: cell-based
[6] = target: T3, Ubiquitin carboxyl-terminal hydrolase 7; experiment: Inhibition of USP7 (unknown origin) by Ub-CHOP reporter assay
[7] = target: T3, Ubiquitin carboxyl-terminal hydrolase 7; experiment: Inhibition of USP7 (unknown origin) by Ub-AMC assay

T3 sequence (Q93009 whole entry): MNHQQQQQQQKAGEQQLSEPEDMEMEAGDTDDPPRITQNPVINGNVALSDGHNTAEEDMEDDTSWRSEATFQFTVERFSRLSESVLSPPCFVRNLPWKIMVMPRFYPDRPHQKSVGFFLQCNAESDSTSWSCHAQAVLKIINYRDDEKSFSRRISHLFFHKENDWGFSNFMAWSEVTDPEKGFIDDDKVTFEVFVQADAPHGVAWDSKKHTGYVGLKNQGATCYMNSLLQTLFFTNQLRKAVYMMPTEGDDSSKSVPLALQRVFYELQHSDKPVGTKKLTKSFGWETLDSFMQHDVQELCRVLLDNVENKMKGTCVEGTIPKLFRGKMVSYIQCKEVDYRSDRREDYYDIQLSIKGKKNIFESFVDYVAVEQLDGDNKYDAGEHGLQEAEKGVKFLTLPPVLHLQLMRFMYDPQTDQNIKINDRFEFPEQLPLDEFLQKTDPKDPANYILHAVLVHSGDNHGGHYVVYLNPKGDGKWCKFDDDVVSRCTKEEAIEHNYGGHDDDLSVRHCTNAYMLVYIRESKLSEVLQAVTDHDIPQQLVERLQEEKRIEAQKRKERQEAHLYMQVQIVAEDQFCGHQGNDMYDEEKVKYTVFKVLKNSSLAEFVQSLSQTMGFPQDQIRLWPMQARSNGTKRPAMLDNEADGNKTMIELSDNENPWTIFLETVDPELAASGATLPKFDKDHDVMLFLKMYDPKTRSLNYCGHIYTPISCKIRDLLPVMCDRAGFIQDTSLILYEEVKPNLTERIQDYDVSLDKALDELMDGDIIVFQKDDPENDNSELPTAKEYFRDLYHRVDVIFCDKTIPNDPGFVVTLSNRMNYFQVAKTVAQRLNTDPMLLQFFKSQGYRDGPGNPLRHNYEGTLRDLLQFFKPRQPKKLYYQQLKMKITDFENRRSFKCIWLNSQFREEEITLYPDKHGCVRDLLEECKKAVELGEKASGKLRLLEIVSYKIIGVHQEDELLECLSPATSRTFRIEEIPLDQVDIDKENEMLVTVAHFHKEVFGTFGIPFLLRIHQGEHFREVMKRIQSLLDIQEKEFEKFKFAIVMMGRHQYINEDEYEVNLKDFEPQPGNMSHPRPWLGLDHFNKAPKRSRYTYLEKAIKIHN
Sequence of Ubiquitin carboxyl-terminal hydrolase 10 (Q14694 whole entry): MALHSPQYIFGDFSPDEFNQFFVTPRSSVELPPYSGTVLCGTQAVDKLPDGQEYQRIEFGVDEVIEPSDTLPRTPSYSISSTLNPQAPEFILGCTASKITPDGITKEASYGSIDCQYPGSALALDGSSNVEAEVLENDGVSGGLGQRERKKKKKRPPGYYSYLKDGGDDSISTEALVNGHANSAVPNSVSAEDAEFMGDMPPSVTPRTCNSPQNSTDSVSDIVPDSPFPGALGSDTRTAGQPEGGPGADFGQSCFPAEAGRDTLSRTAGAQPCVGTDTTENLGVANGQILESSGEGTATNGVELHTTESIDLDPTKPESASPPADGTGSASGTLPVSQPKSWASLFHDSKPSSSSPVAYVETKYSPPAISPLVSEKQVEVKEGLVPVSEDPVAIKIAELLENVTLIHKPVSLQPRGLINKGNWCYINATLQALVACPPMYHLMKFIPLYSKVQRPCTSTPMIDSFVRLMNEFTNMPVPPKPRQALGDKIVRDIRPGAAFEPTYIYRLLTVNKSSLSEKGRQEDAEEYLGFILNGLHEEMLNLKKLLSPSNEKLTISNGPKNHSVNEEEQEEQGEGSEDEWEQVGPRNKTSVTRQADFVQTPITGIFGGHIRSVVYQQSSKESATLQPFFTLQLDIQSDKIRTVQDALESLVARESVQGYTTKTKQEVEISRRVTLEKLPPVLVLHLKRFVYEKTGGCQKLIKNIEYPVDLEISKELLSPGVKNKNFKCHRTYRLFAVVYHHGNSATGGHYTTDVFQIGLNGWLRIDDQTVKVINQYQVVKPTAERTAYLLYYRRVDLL

Compound O=C1c2ccccc2C(=O)c2oc(-c3ccccc3)nc21 has an IC50 [1] of 544 nM.
In the case of Fc1ccc(CNc2ncnc3ccc(F)cc23)cc1, the IC50 [2] is reported as 600 nM and the IC50 [3] is reported as 600 nM.
Cc1cc(C(=O)CN2CCCC2)c(C)n1-c1ccc(F)cc1 gave a Drug uptake [4] of 13 µM.
With O=[N+]([O-])c1cc(CCO)sc1Sc1cccc(Cl)c1Cl the EC50 [5] was 20100 nM.
CC(=O)c1cc([N+](=O)[O-])c(Sc2cccc(Cl)c2Cl)s1 gave an EC50 [6] of 8000 nM.
Work on N#Cc1nc2c(nc1C#N)-c1cc(Cl)ccc1C2=O yielded an IC50 [7] of 420 nM.
